Results from article PMC7198766, “Structure-Activity Studies on the Hypertrehalosemic Hormone II of the Stick Insect Carausius morosus (Phasmatodea): Carbohydrate-Mobilization and Cardio-Stimulatory Activities” (Frontiers in Physiology, 2020).
Values joined by “and” are separate entries in the source; they are usually repeats but may differ in a detail not shown here. Equal entries are not always repeated. Marks after values point to notes of the source that are not given here.

How the values were obtained:
[1] = test system: ligated 6th instar Indian stick insects (Carausius morosus); assay: Carbohydrate-mobilization (hypertrehalosemic) in vivo assay; conditions: for Hemolymph carbohydrates, 90 min: 90 min after injection of 20 pmol peptide in 10 μl; for Hemolymph carbohydrates, 90 min / Hemolymph carbohydrates, Difference: neck-ligated 6th instar nymphs; for Hemolymph carbohydrates, Difference: 90 min minus 0 min, 20 pmol peptide in 10 μl injected; for Hemolymph carbohydrates, 0 min: before injection (0 min), 2 h after neck ligation, group later given 20 pmol peptide in 10 μl, 6th instar nymphs; for % Activity relative to the effect of Carmo-HrTH-II (metabolic): 20 pmol peptide injected, carbohydrate increase relative to Carmo-HrTH-II = 100, NS = no significant increase
Protocol: Sixth instar nymphs that were 1–2 days before molting were neck-ligated and used in the hypertrehalosemic in vivo assay as described in detail by [Gäde and Lohr (1982)]. Stock peptide solutions (5 pmol μl^–1) were diluted with distilled water to the desired concentration in 10 μl, which was injected into the stick insect nymphs.
In the first series of experiments, various doses of synthetic Carmo-HrTH-II and corpora cardiaca (CC) extract of C. morosus were used to determine the maximal hypertrehalosemic response of C. morosus. Hemolymph samples were taken from 17 to 18 days old 6th instar nymphs 2 h after they were neck-ligated and then 90 min after either CC extract or synthetic Carmo-HrTH-II was injected. Ligated nymphs injected with distilled water served as controls for handling stress. As depicted in Figures 1A,B, various doses of both Carmo-HrTH-II and CC extract increased the level of carbohydrates in the hemolymph in a dose-dependent manner. A dose of 0.04 pmol of synthetic Carmo-HrTH-II and the equivalent of 0.005 pairs of corpora cardiaca (pCC) were sufficient to give significant increases in hemolymph carbohydrates (p < 0.05). […] Doses of 0.1–0.5 pCC gave an average increase of 5.6 ± 0.6 mg carbohydrates ml^–1 hemolymph (Figure 1B); again, statistical analyses reveal no significant difference between the effect of these doses (p > 0.05).
Based on these pilot experiments, we selected a dose of 20 pmol for testing the analogs of Carmo-HrTH-II since such a dose of our lead compound, Carmo-HrTH-II had achieved maximal hypertrehalosemic activity.

[2] = test system: heart of neck-ligated Carausius morosus; assay: Semi-exposed heart bioassay (heart beat rate); type: in vivo; conditions: for % Activity relative to the effect of Carmo-HrTH-II (myotropic) / Heart rate, Difference: 20 pmol peptide in 150 μl; for % Activity relative to the effect of Carmo-HrTH-II (myotropic): heart rate increase relative to Carmo-HrTH-II = 100, NS = no significant increase; for Heart rate, Post-application: after application of 20 pmol peptide in 150 μl saline, average of first four counts; for Heart rate, Post-application / Heart rate, Pre-application: neck-ligated stick insects; for Heart rate, Pre-application: in saline before application, semi-exposed heart; for Heart rate, Difference: post- minus pre-application
Protocol: The semi-exposed heart bioassay was carried out as described ([Marco et al., 2018]) with adult stick insects between 1 and 2 months old that were ligated at the neck. Briefly, a ventral incision of the abdomen exposed the ventral cavity with the internal organs; a few drops of stick insect saline (pH 6.6; 15 mM NaCl, 18 mM KCl, 7.5 mM CaCl2, 2 mM HEPES, 50 mM MgCl2, and 184 mM glucose according to [Ejaz and Lange, 2008]) were added to the exposed part. The semi-isolated heart preparation was viewed with a dissecting microscope (12-fold magnification), and the number of observed heart beats (contractions of the heart muscle) was counted during a fixed period using a manual tally counter and a timer. Once the heart had stabilized, saline was replaced with the test solution. For this the peptide stock solution of 5 pmol μl^–1 was diluted with stick insect saline to the desired concentration and a final volume of 150 μl was used for each test.
Heart rates under normal saline served as controls. The change in heart rate after the application of the test solution was calculated as an average of the first four counts and was compared to the average heart rates counted in saline before the application of the test solution. This comparison of change in heart rates was done for all the peptides tested.

pGlu-Leu-Thr-Phe-Thr-Pro-Ser-Trp amide [Aedae-AKH, naturally-occurring AKH octapeptide bioanalog, reference compound]
Hemolymph carbohydrates, 90 min [1]: 8.8 ± 1.2 mg/mL
Hemolymph carbohydrates, Difference [1]: 0.7 ± 1.1 mg/mL
Hemolymph carbohydrates, 0 min [1]: 8.1 ± 1.4 mg/mL
% Activity relative to the effect of Carmo-HrTH-II (myotropic) [2]: 8%
Heart rate, Post-application [2]: 43 ± 6 beats min^−1
Heart rate, Pre-application [2]: 42 ± 6 beats min^−1
Heart rate, Difference [2]: 1 ± 1 beats min^−1

pGlu-Val-Asn-Phe-Thr-Pro-Asn-Trp-Gly-Thr amide [Rommi-CC, naturally-occurring AKH decapeptide bioanalog, reference compound]
% Activity relative to the effect of Carmo-HrTH-II (metabolic) [1]: 48%
Hemolymph carbohydrates, 90 min [1]: 10.6 ± 1.6 mg/mL
Hemolymph carbohydrates, Difference [1]: 2.6 ± 1.5 mg/mL
Hemolymph carbohydrates, 0 min [1]: 8.0 ± 1.4 mg/mL
% Activity relative to the effect of Carmo-HrTH-II (myotropic) [2]: 150^b %
Heart rate, Post-application [2]: 57 ± 4 beats min^−1
Heart rate, Pre-application [2]: 39 ± 3 beats min^−1
Heart rate, Difference [2]: 18 ± 6 beats min^−1

Leu-Thr-Phe-Thr-Pro-Asn-Trp-Gly-Thr amide
Hemolymph carbohydrates, 90 min [1]: 9.5 ± 1.5 mg/mL
Hemolymph carbohydrates, Difference [1]: 0.7 ± 1.3 mg/mL
Hemolymph carbohydrates, 0 min [1]: 8.8 ± 1.7 mg/mL
% Activity relative to the effect of Carmo-HrTH-II (myotropic) [2]: 58%
Heart rate, Post-application [2]: 46 ± 5 beats min^−1
Heart rate, Pre-application [2]: 39 ± 6 beats min^−1
Heart rate, Difference [2]: 7 ± 2 beats min^−1

pGlu-Ala-Thr-Phe-Thr-Pro-Asn-Trp-Gly-Thr amide [Ala^2-Carmo-HrTH-II]
% Activity relative to the effect of Carmo-HrTH-II (metabolic) [1]: 100%
Hemolymph carbohydrates, 90 min [1]: 16.8 ± 1.7 mg/mL
Hemolymph carbohydrates, Difference [1]: 5.4 ± 1.7 mg/mL
Hemolymph carbohydrates, 0 min [1]: 11.4 ± 2.3 mg/mL
Heart rate, Post-application [2]: 42 ± 5 beats min^−1
Heart rate, Pre-application [2]: 42 ± 7 beats min^−1
Heart rate, Difference [2]: 0 ± 2 beats min^−1

pGlu-Leu-Asn-Phe-Thr-Pro-Asn-Trp amide [Pyrap-AKH, naturally-occurring AKH octapeptide bioanalog, reference compound]
Hemolymph carbohydrates, 90 min [1]: 9.2 ± 1.8 mg/mL
Hemolymph carbohydrates, Difference [1]: 0.5 ± 1.0 mg/mL
Hemolymph carbohydrates, 0 min [1]: 8.7 ± 1.8 mg/mL
% Activity relative to the effect of Carmo-HrTH-II (myotropic) [2]: 16%
Heart rate, Post-application [2]: 41 ± 4 beats min^−1
Heart rate, Pre-application [2]: 39 ± 5 beats min^−1
Heart rate, Difference [2]: 2 ± 2 beats min^−1

pGlu-Leu-Thr-Phe-Thr-Ala-Asn-Trp-Gly-Thr amide [Ala^6-Carmo-HrTH-II]
Hemolymph carbohydrates, 90 min [1]: 11.1 ± 0.9 mg/mL
Hemolymph carbohydrates, Difference [1]: 1.6 ± 1.1 mg/mL
Hemolymph carbohydrates, 0 min [1]: 9.5 ± 1.2 mg/mL
Heart rate, Post-application [2]: 43 ± 5 beats min^−1
Heart rate, Pre-application [2]: 43 ± 5 beats min^−1
Heart rate, Difference [2]: 0 ± 0 beats min^−1

pGlu-Leu-Thr-Phe-Thr-Pro-Asn-Trp-Gly-Ala amide [Ala^10-Carmo-HrTH-II]
% Activity relative to the effect of Carmo-HrTH-II (metabolic) ([1]; listed as Ala^10 analog of Carmo-HrTH-II): about 50%
Hemolymph carbohydrates, 90 min [1]: 12.4 ± 1.6 mg/mL
Hemolymph carbohydrates, Difference [1]: 2.5 ± 1.0 mg/mL
Hemolymph carbohydrates, 0 min [1]: 9.9 ± 2.3 mg/mL
Heart rate, Post-application [2]: 41 ± 5 beats min^−1
Heart rate, Pre-application [2]: 41 ± 5 beats min^−1
Heart rate, Difference [2]: 0 ± 1 beats min^−1

pGlu-Leu-Thr-Phe-Thr-Pro-Asn-Trp amide [Peram-CAH-II, naturally-occurring AKH octapeptide bioanalog, reference compound]
% Activity relative to the effect of Carmo-HrTH-II (metabolic) [1]: 30% and 31%
Hemolymph carbohydrates, 90 min [1]: 11.0 ± 1.1 mg/mL
Hemolymph carbohydrates, Difference [1]: 1.7 ± 2.0 mg/mL
Hemolymph carbohydrates, 0 min [1]: 9.3 ± 1.8 mg/mL

pGlu-Leu-Thr-Phe-Thr-Pro-Asn-Ala-Gly-Thr amide [Ala^8-Carmo-HrTH-II]
Hemolymph carbohydrates, 90 min [1]: 8.3 ± 1.9 mg/mL
Hemolymph carbohydrates, Difference [1]: -0.1 ± 1.3 mg/mL
Hemolymph carbohydrates, 0 min [1]: 8.5 ± 2.1 mg/mL
Heart rate, Post-application [2]: 42 ± 4 beats min^−1
Heart rate, Pre-application [2]: 42 ± 5 beats min^−1
Heart rate, Difference [2]: 0 ± 2 beats min^−1

pGlu-Leu-Thr-Ala-Thr-Pro-Asn-Trp-Gly-Thr amide [Ala^4-Carmo-HrTH-II]
Hemolymph carbohydrates, 90 min [1]: 9.1 ± 2.4 mg/mL
Hemolymph carbohydrates, Difference [1]: 0.5 ± 2.3 mg/mL
Hemolymph carbohydrates, 0 min [1]: 8.6 ± 2.2 mg/mL
Heart rate, Post-application [2]: 41 ± 4 beats min^−1
Heart rate, Pre-application [2]: 40 ± 4 beats min^−1
Heart rate, Difference [2]: 1 ± 1 beats min^−1

pGlu-Leu-Ala-Phe-Thr-Pro-Asn-Trp-Gly-Thr amide [Ala^3-Carmo-HrTH-II]
Hemolymph carbohydrates, 90 min [1]: 11.1 ± 1.8 mg/mL
Hemolymph carbohydrates, Difference [1]: 0.8 ± 1.6 mg/mL
Hemolymph carbohydrates, 0 min [1]: 10.3 ± 2.4 mg/mL
% Activity relative to the effect of Carmo-HrTH-II (myotropic) [2]: 16%
Heart rate, Post-application [2]: 40 ± 6 beats min^−1
Heart rate, Pre-application [2]: 38 ± 6 beats min^−1
Heart rate, Difference [2]: 2 ± 1 beats min^−1

pGlu-Leu-Thr-Phe-Thr-Pro-Asn-Trp*-Gly-Thr amide [Carmo-HrTH-I, endogenous hormone isolated from C. morosus CC; Trp^8 C-mannosylated, reference compound]
% Activity relative to the effect of Carmo-HrTH-II (metabolic) [1]: 91^b %
Hemolymph carbohydrates, 90 min [1]: 12.9 ± 1.9 mg/mL
Hemolymph carbohydrates, Difference [1]: 4.9 ± 1.1 mg/mL
Hemolymph carbohydrates, 0 min [1]: 8.0 ± 1.6 mg/mL
% Activity relative to the effect of Carmo-HrTH-II (myotropic) [2]: 108^b %
Heart rate, Post-application [2]: 54 ± 2 beats min^−1
Heart rate, Pre-application [2]: 41 beats min^−1 and 41 ± 4 beats min^−1
Heart rate, Difference [2]: 13 ± 2 beats min^−1

pGlu-Leu-Asn-Phe-Thr-Pro-Asn-Trp-Gly-Thr amide [Locmi-AKH-I, naturally-occurring AKH decapeptide bioanalog, reference compound]
% Activity relative to the effect of Carmo-HrTH-II (metabolic) [1]: 19%
Hemolymph carbohydrates, 90 min [1]: 9.9 ± 1.2 mg/mL
Hemolymph carbohydrates, Difference [1]: 1.0 ± 1.2 mg/mL
Hemolymph carbohydrates, 0 min [1]: 8.9 ± 1.3 mg/mL
% Activity relative to the effect of Carmo-HrTH-II (myotropic) [2]: 25%
Heart rate, Post-application [2]: 43 ± 4 beats min^−1
Heart rate, Pre-application [2]: 40 ± 4 beats min^−1
Heart rate, Difference [2]: 3 ± 1 beats min^−1

pGlu-Leu-Thr-Phe-Thr-Pro-Asn-Trp-Gly-Ser amide [Phyle-CC, naturally-occurring AKH decapeptide bioanalog, reference compound]
% Activity relative to the effect of Carmo-HrTH-II (metabolic) [1]: 109^b %
Hemolymph carbohydrates, 90 min [1]: 14.1 ± 1.7 mg/mL
Hemolymph carbohydrates, Difference [1]: 5.9 ± 1.7 mg/mL
Hemolymph carbohydrates, 0 min [1]: 8.2 ± 1.9 mg/mL
% Activity relative to the effect of Carmo-HrTH-II (myotropic) [2]: 67^b %
Heart rate, Post-application [2]: 46 ± 6 beats min^−1
Heart rate, Pre-application [2]: 38 ± 7 beats min^−1
Heart rate, Difference [2]: 8 ± 2 beats min^−1

pGlu-Leu-Asn-Phe-Thr-Pro-Asn-Trp-Gly-Ser amide [Phymo-AKH, naturally-occurring AKH decapeptide bioanalog, reference compound]
Hemolymph carbohydrates, 90 min [1]: 10.5 ± 1.4 mg/mL
Hemolymph carbohydrates, Difference [1]: 0.9 ± 1.7 mg/mL
Hemolymph carbohydrates, 0 min [1]: 9.6 ± 1.8 mg/mL
% Activity relative to the effect of Carmo-HrTH-II (myotropic) [2]: 8%
Heart rate, Post-application [2]: 38 ± 4 beats min^−1
Heart rate, Pre-application [2]: 37 ± 3 beats min^−1
Heart rate, Difference [2]: 1 ± 1 beats min^−1
